Reference: patent publication US4870187A, “Antihypercholesterolemic tetrazol-1-yl compounds” (Bristol-Myers Company, priority 1988, dated 1989)
Where a name gives a salt, the structure may show the parent alone.

What was measured:
[1] = target: T1, rat liver HMG-CoA reductase (Rattus norvegicus, UniProt P51639); experiment: Test A: In Vitro Inhibition of Microsomal HMG-CoA Reductase; format: biochemical; conditions: rat liver microsomes; 0.33 mM d,1-[3-14C]-HMG-CoA, 3.0 mM NADPH, pH 7.2
T1 construct: from tissue; host or cells: rat liver microsomes
T1 sequence (P51639 1-887): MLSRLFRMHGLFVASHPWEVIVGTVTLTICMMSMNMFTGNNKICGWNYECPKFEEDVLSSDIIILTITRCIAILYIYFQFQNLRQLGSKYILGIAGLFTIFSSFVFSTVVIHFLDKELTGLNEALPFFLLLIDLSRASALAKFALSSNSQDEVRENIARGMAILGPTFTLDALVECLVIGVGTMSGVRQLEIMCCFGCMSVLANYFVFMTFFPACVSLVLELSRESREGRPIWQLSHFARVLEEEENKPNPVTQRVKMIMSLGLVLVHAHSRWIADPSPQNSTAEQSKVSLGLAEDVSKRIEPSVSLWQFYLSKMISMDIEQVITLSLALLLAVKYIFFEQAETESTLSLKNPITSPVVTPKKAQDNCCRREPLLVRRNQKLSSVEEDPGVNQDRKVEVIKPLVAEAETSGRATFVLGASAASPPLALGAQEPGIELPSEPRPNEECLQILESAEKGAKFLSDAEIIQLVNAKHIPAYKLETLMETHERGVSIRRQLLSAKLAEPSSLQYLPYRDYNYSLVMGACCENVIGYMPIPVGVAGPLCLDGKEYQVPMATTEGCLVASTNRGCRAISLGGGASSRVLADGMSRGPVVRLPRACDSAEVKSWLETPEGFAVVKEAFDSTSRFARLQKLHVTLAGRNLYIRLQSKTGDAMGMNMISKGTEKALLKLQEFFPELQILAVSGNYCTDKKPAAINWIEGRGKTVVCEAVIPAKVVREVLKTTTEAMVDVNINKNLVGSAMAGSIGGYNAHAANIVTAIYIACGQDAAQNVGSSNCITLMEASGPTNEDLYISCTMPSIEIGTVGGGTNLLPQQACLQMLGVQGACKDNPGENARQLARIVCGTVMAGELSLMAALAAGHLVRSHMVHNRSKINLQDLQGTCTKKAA
Protocol: The intact, fully activated microsomal form of rat liver HMG-CoA reductase (subunit MW ca 100,000 daltons) was prepared as described by Parker, et al., Biochem. Biophys. Res. Commun., 125, 629-635 (1984), and used as the source of enzyme for assays. HMG-CoA reductase activity was determined essentially by the method of Shapiro, et al., Biochem. Biophys. Acta., 370, 369-377 (1974), with modifications as described by Ingebritsen and Gibson, Meth. Enzymol. 71, 486-497 (1981) with the exception that the internal standard ^3 H-mevalonolactone is added after termination of the assay. […]
To measure reductase inhibition, test compounds dissolved in water or dimethylsulfoxide and diluted in buffer A (50 mM imidazole-HCl, 250 mM NaCl, 1 mM EDTA, 1 mM EGTA, 5 mM DTT, 20 μM leupeptin, pH=7.2) were incubated with aliquots of microsomes (80-160 μg protein in buffer A) followed by addition of d,1-[3-^14 C]-HMG-CoA (0.33 mM, 2.0 dpm/picomole) and NADPH (3.0 mM). The 50 percent inhibitory concentration (IC50) for each compound in Table 1 was calculated from the linear regression line of the percent decrease (from control) in enzyme activity vs. log concentration of inhibitor, determined using at least 4 dilutions of each test compound assayed in duplicate.

[2] = system: Isolated Hepatocyte Cholesterol Biosynthesis; experiment: Test B: Isolated Hepatocyte Cholesterol Biosynthesis Assay; format: cell-based, male Wistar rats; conditions: rat hepatocytes, 10 min preincubation, 60 min incubation at 37°, pH 7.35, read-out: IC50, Inhibition of Isolated Hepatocyte Cholesterol Biosynthesis
Protocol: Intact parenchymal hepatocytes were isolated from male Wistar rats (180-280 g) fed cholestyramine containing or normal diet, using the collagenase perfusion method essentially as described by Seglen, in Methods in Cell Biology (D. Prescott, ed.) Vol. 13, pp. 29-83, Academic Press, New York (1976). Cell preparations were used only when viability (trypan blue exclusion) exceeded 90%. Cholesterol biosynthesis was determined as the incorporation by hepatocytes of ^3 H from [^3 H]-water into total (cellular plus medium) 3β-hydroxy sterols as per Ingebritsen, et al., J. Biol. Chem., 254, 9986-9989 (1979). Hepatocyte sterols and lipids were isolated by a modification of the methods described by Kates, in Techniques in Lipidology, (M. Kates, ed.), pp. 349, 360-363, North Holland Publ. Co., Amsterdam, 1972. To isolate sterols, cells are extracted with methanol:chloroform:water (2:1:0.8), the chloroform phase is separated and extracted with benzene to remove traces of water, then dried under nitrogen. The residue is saponified at 75° C. with 0.30N NaOH in methanol:water (9:1). The alkaline mixture is then extracted three times with petroleum ether to yield the non-saponifiable lipids which include the free as well as initially esterified cholesterol. The extract is dried under nitrogen in the presence of carrier cholesterol (0.1 mg) and 10% benzene, and the residue is dissolved in acetone:ethanol (1:1). Finally, the 3β-hydroxysterols are precipitated with an excess of digitonin, the precipitate is washed in acetone, dried under nitrogen, and dissolved in toluene:methanol (1:1). The ^3 H-labelled sterols are quantified by liquid scintillation and corrected for counting efficiency. In some tests ^14 C-cholesterol was added to initial extractions as an index of recovery, which averaged 80±3%. […]

Row | SMILES | IC50 [1] [nM] | IC50 [2] [nM]
1 | Cc1nnnn1C(/C=C/C(O)CC(O)CC(=O)O)=C(c1ccc(F)cc1)c1ccc(F)cc1 (centres unmarked) [Example 20] | 750 | 100
2 | O=C(O)CC(O)CC(O)/C=C/C(=C(c1ccc(F)cc1)c1ccc(F)cc1)n1cnnn1 (centres unmarked) [Example 28, 9,9-Bis(4-fluorophenyl)-3,5-dihydroxy-8-(1H-tetrazol-1-yl)-6,8-nonadienoic acid, sodium salt] | 120 | 20
3 | CC[C@H](C)C(=O)O[C@H]1C[C@@H](C)C=C2C=C[C@H](C)[C@H](CC[C@@H]3C[C@@H](O)CC(=O)O3)[C@H]21 [Mevinolin (Lovastatin), Mevinolin, reference compound] |  | 46 ± 26
